For one series, the system named is MCF7. Nature of the series: MTT cytotoxicity assay, breast cancer. In kind it is cell-based, human. The following applies: Homo sapiens, MCF7, 72 h, read-out: IC50 ± SEM, MCF7. The protocol:
(§1) The cytotoxicity study of the quinolinones 2–3 was evaluated in vitro by MTT assay on immortalized humane fibroblasts (hTERT), humane breast cancer cell line (MCF7) and humane glioblastoma cell line (U-87MG and) versus doxorubicin as a reference compound.
(§2) Cell lines were obtained from the American Type Culture Collection: U-87 MG (ATCC number HBT-14), MCF7 (ATCC number HTB-22), A549 (ATCC number CRM-CCL), HeLa (ATCC number CCL-2). Immortalized human fibroblasts hTERT (as noncancerous control) were obtained from ICG SB RAS (Novosibirsk, Russia). DMEM with 10% fetal bovine serum (Gibco, Amarillo, TX, USA) was used for culturing. Optical density was measured on a Multiskan RC spectrophotometer (LabSystems, Vantaa, Finland). The MTT test was carried out according to the standard procedure using the reagent 3-(4,5-dimethylthiazol-2-yl)-2,5-diphen-yltetrazolium bromide (MTT, Sigma). Cells were seeded in 96 well plates at 5000 cells/well and incubated for 24 h at 37 C in 5% CO2. After 24 h, various concentrations of test compounds ([…]) in DMSO were added and the cells were incubated for an additional 72 h. The viability for DMSO (negative control) was calculated as 100%. All culture experiments were carried out independently three times with two repeats in the experiment, and the final result is presented as concentration, which causes 50% inhibition of cell population growth (IC50 ± SEM).

The next series concerns HeLa. Put plainly: MTT cytotoxicity assay, cervical cancer. The series is classed as cell-based. The settings on record: HeLa; for IC50: Homo sapiens, 72 h, MTT, read-out: IC50 ± SEM, HeLa. The protocol:
as §2
(In general: Formazan colour is commonly taken as a measure of viable cells.)

For another series, the system named is U-87 MG. Put plainly: MTT cytotoxicity assay, glioblastoma. The series is classed as cell-based, human. The following applies: Homo sapiens, U-87 MG, 72 h, read-out: IC50 ± SEM, U-87 MG. The protocol: as §1, §2
The test system of a further series is A549. Nature of the series: MTT cytotoxicity assay, A549. The series is classed as cell-based. The following applies: Homo sapiens, 72 h, read-out: IC50 ± SEM, A549. The protocol:
as §2

The subject of a further series is hTERT. Nature of the series: MTT cytotoxicity assay, immortalized fibroblasts. In kind it is cell-based, human. The following applies: for IC50: Homo sapiens, Fibroblast, 72 h, read-out: IC50 ± SEM, hTERT. The protocol:
as §1, §2

Series [1] relates to Histamine-Induced Inflammation. Nature of the series: Histamine-induced mouse paw edema model. In kind it is in vivo, outbred albino male mice. The settings on record: for anti-inflammatory effect (in words) / inhibition in vivo at 20 mg/kg: 20 mg/kg i.p.; for inhibition in vivo at 20 mg/kg: Mus musculus, ip, anti-inflammatory activity relative to control group, read-out: Histamine-Induced Inflammation AIA, %; for Histamine-Induced Inflammation IEI, %: inflammatory edema index, 20 mg/kg i.p. 1 h before histamine, mean ± SEM. The source says:
(§3) The anti-inflammatory activity of the synthesized compounds was investigated in vivo in comparison with indomethacin on two models of local inflammation induced by histamine or concanavalin A injection. The last one was used as the inductor of allergic-like inflammation, owing to its immunogenic activity. The results were expressed as values of inflammatory edema indexes (IEI) and percentages of anti-inflammatory activity (AIA) relative to the control group (Table 1).
(§4) The pharmacological studies were carried out on outbred albino male mice and C57BL/6 female mice weighing 20–25 g with eight animals in each group. The anti-inflammatory activity of compounds 2–3 was evaluated in the histamine-induced and concanavalin A-induced mouse paw edema models. The test compounds were dissolved in saline containing 0.5% Tween 80 just before intraperitoneal administration at the dose of 20 mg/kg. The reference agent indomethacin (‘Fluka BioChemica’) was administered by the same method and dose. The control group of animals received an equivalent volume of water–Tween mixture.
The 8 outbred male albino mice were subplantar injected into the hind paw with 0.05 mL 0.01% histamine (“Sigma Aldrich”, Saint Louis, MO, USA) in water solution. The tested compounds were administered 1 h before the histamine injection. The animals were sacrificed by cervical dislocation 5 h after the phlogogen injection.
(§5) Both hind paws were cut off at the ankle joint and weighed. The ratio of the difference in weight between the treated and untreated hind paws to the weight of the untreated hind paw was used as an inflammatory edema index (IEI). The relative percentage of IEI versus control IEI (100%) was calculated for each test group. The anti-inflammatory activity (AIA) was presented as a difference between 100% in the control group and relative percentage of IEI in the test group.

For series [2], the system named is Concanavalin A-Induced Inflammation. Nature of the series: Concanavalin A-induced mouse paw edema model. In kind it is in vivo, C57BL/6 female mice. The settings on record: for inhibition in vivo at 20 mg/kg: Mus musculus, ip, anti-inflammatory activity relative to control group, read-out: Concanavalin A-Induced Inflammation AIA, %; for inhibition in vivo at 20 mg/kg / Concanavalin A-Induced Inflammation IEI, %: 20 mg/kg i.p. twice; for Concanavalin A-Induced Inflammation IEI, %: inflammatory edema index, 24 h and 1 h before phlogogen, mean ± SEM.
From the text: as §3, §4
The 8 female mice C57Bl/6 were subplantar injected into the hind paw with 0.02 mL 0.5% concanavaline A (“Sigma Aldrich”) aqueous solution. The test compounds were administered twice 24 h and 1 h before phlogogen. The animals were sacrificed by cervical dislocation 1 h after the phlogogen injection.
as §5

The IC50 is the concentration that gives 50% inhibition. In general, melting point refers to the temperature of the solid-liquid transition.

In the case of `O=C1c2ccccc2-c2nc(-c3ccccc3)cc3cccc1c23` [3a, 2-phenyl-7H-dibenzo[de,h]quinolin-7-one], the melting point lay in the range of 207 to 208 °C. In addition, in the series on MCF7, the 50% inhibitory concentration (IC50) is > 100 µM. Moreover, the “cytotoxicity lower than doxorubicin” value in the series with HeLa (ratio of IC50) is recorded as 14 times. Further, in the series on HeLa, the IC50 was 86.3 ± 12.9 µM. In the series on U-87 MG, the half-inhibitory concentration (IC50) was > 100 µM. In addition, the IC50 in the series on A549 was > 100 µM. In the series with hTERT, the “cytotoxic effect on immortal fibroblasts (in words)” value was “did not have a cytotoxic effect” and the IC50 is > 100 µM. In series [1], the “anti-inflammatory effect (in words)” value was “most potent effect”; the inhibition in vivo at 20 mg/kg is 60%; the “Histamine-Induced Inflammation IEI, %” value amounted to 13.9 ± 0.8 %. Moreover, the “activity higher than that of indomethacin (reference drug)” value in series [2] (20 mg/kg double i.p. administration) is 1.3–1.4 times. In series [2], the inhibition in vivo at 20 mg/kg amounted to 53% and the “Concanavalin A-Induced Inflammation IEI, %” value turned out to be 17.8 ± 1.8 %.

For the compound `CC(=O)c1ccc(-c2cc3cccc4c3c(n2)-c2ccccc2C4=O)cc1` [3b, 2-(p-acetylphenyl)-7H-dibenzo[de,h]quinolin-7one], the melting point lay within 324 to 325 °C. The IC50 in the series with MCF7 is > 100 µM. The IC50 with HeLa was > 100 µM. The IC50 in the series on U-87 MG is > 100 µM. Moreover, the IC50 in the series with A549 was > 100 µM. Also, the half-inhibitory concentration (IC50) in the series with hTERT was > 100 µM. For the same compound, in series [1], the “anti-inflammatory effect (in words)” value is on record as “most potent effects”; the inhibition in vivo at 20 mg/kg came to 36%; the “Histamine-Induced Inflammation IEI, %” value stood at 22.1 ± 1.8 %. In addition, the “anti-inflammatory effect (in words)” value in series [2] (20 mg/kg i.p.) is “most potent effects”. For the same compound, in series [2], the inhibition in vivo at 20 mg/kg worked out at 52% and the “Concanavalin A-Induced Inflammation IEI, %” value is listed as 18.0 ± 2.0 %.
